This assay relates to Src-TQ/YF expressing cell line ZM170.21. As to the kind of experiment: CTB and ATP cell viability/metabolic activity assays, suppression of tet-induced reduction. In kind it is cell-based, human. Conditions: ZM170.21 (Src-TQ/YF), 5µM PP2 + 10µM PP1-Chr., 40µM D5, 1µM 17-AAG, 1µM radicicol. The text has this:
To proof the concept of the assay platform according to the invention in a quantitative manner with a highly parallel readout, the following cell viability / metabolic activity assays from Promega according to the manufacturer's protocols: "CellTiter 96 AQueous One Solution Cell Proliferation Assay (MTS)", CellTiter-BlueTM Cell Viability Assay (CTB), and the ATP-status assay "CellTiter-Glo Luminescent Cell Viability Assay" (ATP) were used to obtain quantitative values reflecting (aspects of) the phenotype changes. The cells were seeded into white-walled/ clear bottom 96-well plates ["MICROTEST" by Falcon, cat.no. 353947] for MTS and ATP assays and in black-walled/ clear bottom 96-well plates ["MICROTEST" by Falcon, cat.no. 353948] for the CTB assay at the appropriate densities. Tet and/or compound addition (where applicable) was started the next day. Measurements were taken 1,2 and 3 days later using the Wallac Victor^2TM multilabel plate reader (Perkin Elmer). Absorbance was measured at 490nm (MTS). Luminescence mode was used for the ATP assay. For CTB fluorescence excitation wavelength was 550nm (filter: 550(20)nm), emission wavelength was 590 nm (filter: 590(20)nm). Indicated are the means of sixplicate determinations (from 6 independent wells) in the absence of tet (mean(-tet)) and in the presence of tet (mean(+tet)), followed by the respective corresponding standard deviations SD(-tet) and SD(+tet). The cell viability/ metabolic activity upon tet-induction in relation to the cell viability/ metabolic activity without tet ("+/tet(means") is calculated from the quotient of the means of the measured cell viability/ metabolic activity signals from i) cells incubated without tet and ii) cells incubated with tet. […] Furthermore indicated are the corresponding Z' values. In the present context: Z'=1-(3(SD(+tet)+SD(-tet))/ |mean(+tet)-mean(-tet)|. […] SD=0) (Zhang et al., 1999). Z'≥0 is required for an assay useful for a screening approach; a Z'≥0.5 is considered excellent for an assay with regard to high throughput screening. […] Three more parameters reflecting the effects of compounds on cell viability/metabolic activity in these assays are indicated in Tab.3 and Tab.4: Toxicity reflects the nonspecific (i.e. irrespective of tet-induced Src/ Src mutant expression) effects of a compound on the viability/ metabolic activity of the cells. It is calculated as toxicity=1-mean(-tet, compound)/mean(-tet,(DMSO)). […] The suppression value quantifies the potency of a compound with respect to suppression of the tet-induced change in cell viability / metabolic activity. Usually, tet-induction reduces cell viability / metabolic activity due to Src activity and addition of a Src inhibitory compound mitigates this reduction. A suppression of 100% means that the compound totally suppresses the tet-induced decrease in cell viability / metabolic activity (as in the absence of tet). The following formula is employed: Suppres-sion=([…]). Finally, the corresponding Z' value is calculated as follows: Z'(suppression)=1- 3([…]). The factor Qtox corrects the means and SD determined in the absence of a compound for the (nonspecific) toxicity effect of the respective compound, which would otherwise overlay and obscure the specific suppression, if toxicity is not neglectable. […] On each day 4 measurements are taken (1, 2, 3 and 4 h after the addition of the CTB assay reagents). […]

Turning to `CC(C)(C)n1nc(-c2ccc(Cl)cc2)c2c(N)ncnc21` [PP2], the “suppression of the +/-tet(means)-values” is given as “did not significantly suppress”.

Values taken from patent publication EP1541694A1, “Methods of identifying, selecting and/or characterizing compounds which modulate the activity of a Src family kinase” (Sirenade Pharmaceuticals AG, priority 2003, dated 2005).
